The values below come from patent US10787446B2 (GENENTECH, INC., priority 2015, dated 2020).

Structures are written as SMILES.

The target in this experiment is T1, hNav1.7 and the β1 subunit (Homo sapiens, UniProt Q15858).
T1 construct: expressed in transfected cells
T1 sequence (Q15858 whole entry): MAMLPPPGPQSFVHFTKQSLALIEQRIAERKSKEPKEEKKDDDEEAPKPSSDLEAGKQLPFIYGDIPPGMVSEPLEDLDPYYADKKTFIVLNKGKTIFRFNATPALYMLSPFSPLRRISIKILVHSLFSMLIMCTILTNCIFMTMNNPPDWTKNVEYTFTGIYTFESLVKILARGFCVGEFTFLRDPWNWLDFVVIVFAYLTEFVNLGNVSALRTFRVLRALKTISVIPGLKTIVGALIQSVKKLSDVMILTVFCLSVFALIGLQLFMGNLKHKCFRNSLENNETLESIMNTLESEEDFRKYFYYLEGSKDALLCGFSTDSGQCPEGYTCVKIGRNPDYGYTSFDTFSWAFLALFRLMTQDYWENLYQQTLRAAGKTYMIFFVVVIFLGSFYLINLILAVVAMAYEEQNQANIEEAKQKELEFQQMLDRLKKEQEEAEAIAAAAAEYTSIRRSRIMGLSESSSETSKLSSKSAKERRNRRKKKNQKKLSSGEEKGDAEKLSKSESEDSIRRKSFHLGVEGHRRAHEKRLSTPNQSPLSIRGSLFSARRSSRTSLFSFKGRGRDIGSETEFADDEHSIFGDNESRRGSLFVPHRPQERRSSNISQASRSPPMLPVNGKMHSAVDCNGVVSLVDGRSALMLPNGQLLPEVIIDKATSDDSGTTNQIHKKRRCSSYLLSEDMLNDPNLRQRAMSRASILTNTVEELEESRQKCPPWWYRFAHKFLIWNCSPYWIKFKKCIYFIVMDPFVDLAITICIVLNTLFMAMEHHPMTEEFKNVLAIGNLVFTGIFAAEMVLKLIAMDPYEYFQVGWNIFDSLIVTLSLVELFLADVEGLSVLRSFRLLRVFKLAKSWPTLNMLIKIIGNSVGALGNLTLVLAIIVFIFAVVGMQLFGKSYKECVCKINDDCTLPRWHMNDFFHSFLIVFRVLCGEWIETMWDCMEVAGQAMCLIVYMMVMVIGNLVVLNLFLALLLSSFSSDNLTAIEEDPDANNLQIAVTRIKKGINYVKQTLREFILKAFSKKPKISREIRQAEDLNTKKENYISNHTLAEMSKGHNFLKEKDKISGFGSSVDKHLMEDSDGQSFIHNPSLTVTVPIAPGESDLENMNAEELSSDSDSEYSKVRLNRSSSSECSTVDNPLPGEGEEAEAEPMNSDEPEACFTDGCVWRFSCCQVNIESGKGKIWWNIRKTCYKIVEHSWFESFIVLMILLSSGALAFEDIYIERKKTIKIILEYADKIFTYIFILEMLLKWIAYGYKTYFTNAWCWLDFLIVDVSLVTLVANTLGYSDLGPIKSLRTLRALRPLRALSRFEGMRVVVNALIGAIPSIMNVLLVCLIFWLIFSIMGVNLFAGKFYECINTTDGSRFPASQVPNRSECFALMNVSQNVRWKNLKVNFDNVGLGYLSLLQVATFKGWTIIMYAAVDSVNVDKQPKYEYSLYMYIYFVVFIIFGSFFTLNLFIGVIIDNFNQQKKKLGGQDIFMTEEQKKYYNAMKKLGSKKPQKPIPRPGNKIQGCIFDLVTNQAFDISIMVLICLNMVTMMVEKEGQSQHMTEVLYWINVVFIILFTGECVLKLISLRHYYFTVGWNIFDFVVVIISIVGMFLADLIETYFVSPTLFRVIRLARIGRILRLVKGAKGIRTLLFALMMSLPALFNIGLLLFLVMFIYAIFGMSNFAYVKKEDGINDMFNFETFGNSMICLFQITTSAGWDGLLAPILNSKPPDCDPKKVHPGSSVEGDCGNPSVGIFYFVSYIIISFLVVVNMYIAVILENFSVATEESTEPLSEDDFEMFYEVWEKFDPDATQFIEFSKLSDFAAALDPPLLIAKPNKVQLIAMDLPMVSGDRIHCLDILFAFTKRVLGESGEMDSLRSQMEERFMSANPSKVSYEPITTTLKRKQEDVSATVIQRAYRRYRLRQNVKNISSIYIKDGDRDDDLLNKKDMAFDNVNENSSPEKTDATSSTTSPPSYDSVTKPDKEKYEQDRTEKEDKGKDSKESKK
T1 sequence (Q07699 19-218 partner): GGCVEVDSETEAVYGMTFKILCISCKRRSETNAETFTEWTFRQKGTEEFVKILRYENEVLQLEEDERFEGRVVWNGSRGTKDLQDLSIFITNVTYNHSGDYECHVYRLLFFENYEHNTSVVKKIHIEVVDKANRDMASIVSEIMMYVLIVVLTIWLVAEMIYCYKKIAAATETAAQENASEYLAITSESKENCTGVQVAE
The experiment is described as follows: Tritiated compound competitive binding to membranes from cells heterologously expressing hNav1.7 and the β1 subunit (LBA). Conditions: competition with 100 pM [3H]compound, 18 h, room temperature; IC50 by 4 parameter logistic model. The method, then:
Example 235 Tritiated Compound Binding to Membranes Isolated from Cells that Heterologously Express hNav1.7 and the β1 Subunit
Preparation of membranes containing recombinantly expressed sodium channels: Frozen recombinant cell pellets were thawed on ice and diluted to 4 times the cell pellet weight with ice cold 50 mM Tris HCl, pH 7.4 buffer. The cell suspensions were homogenized on ice using a motorized glass dounce homogeniser. Homogenates were further diluted 8.4 times with ice cold 50 mM Tris HCl, pH 7.4 buffer and then centrifuged at 200×g at 4° C. for 15 min. The supernatants were collected and centrifuged at 10000×g at 4° C. for 50 min. The pellets were then re-suspended in 100 mM NaCl, 20 mM Tris HCl, pH 7.4 buffer containing 1% v/v protease inhibitors (Calbiochem) and re-homogenized on ice. The homogenized membranes were then processed through a syringe equipped with a 26 gauge needle. Protein concentrations were determined by Bradford Assay and the membranes were stored at −80° C.
Radioligand Binding Studies:
Saturation experiments. A competitive NaV1.7 inhibitor having a methyl group was tritiated. Three tritiums were incorporated in place of methyl hydrogens to generate [^3H]compound. Binding of this radioligand was performed in 5 mL borosilicate glass test tubes at room temperature. Binding was initiated by adding membranes to increasing concentrations of [^3H]compound in 100 mM NaCl, 20 mM Tris HCl, pH 7.4 buffer containing 0.01% w/v bovine serum albumin (BSA) for 18 h. […] After 18 h, the reactants were filtered through GF/C glass fiber filters presoaked in 0.5% w/v polyethylene imine. […] [^3H]compound bound to filters was quantified by liquid scintillation counting.
Competitive Binding Experiments:
Binding reactions were performed in 96-well polypropylene plates at room temperature for 18 h. In 360 μL, membranes were incubated with 100 pM [^3H]compound and increasing concentrations of Test Compound. […] Reactions were transferred and filtered through 96-well glass fiber/C filter plates presoaked with 0.5% polyethylene imine. The filtered reactions were washed 5 times with 200 μL ice cold buffer containing 0.25% BSA. Bound radioactivity was determined by liquid scintillation counting.
Data Analysis: For saturation experiments, non-specific binding was subtracted from total binding to provide specific binding and these values were recalculated in terms of pmol ligand bound per mg protein. Saturation curves were constructed and dissociation constants were calculated using the single site ligand binding model: Beq=(Bmax*X)/(X+Kd), where Beq is the amount of ligand bound at equilibrium, Bmax is the maximum receptor density, Kd is the dissociation constant for the ligand, and X is the free ligand concentration. For competition studies percent inhibition was determined and IC50 values were calculated using a 4 parameter logistic model (% inhibition=(A+((B−A)/(1+((x/C)^D)))) using XLfit, where A and B are the maximal and minimum inhibition respectively, C is the IC50 concentration and D is the (Hill) slope.
As for `O=S(=O)(Nc1ncns1)c1ccc(CN2CCCC[C@@H]2c2ccccc2)c(Cl)c1` [Example 64, (R)-3-chloro-4-((2-phenylpiperidin-1-yl)methyl)-N-(1,2,4-thiadiazol-5-yl)benzenesulfonamide], the “Nav1.7 (LBA)” value came to 0.965 µM. Turning to `Cn1nccc1[C@@H]1CCCCN1[C@H]1CCOc2cc(S(=O)(=O)Nc3ncns3)ccc21` [Example 41, (S)-4-((S)-2-(1-methyl-1H-pyrazol-5-yl)piperidin-1-yl)-N-(1,2,4-thiadiazol-5-yl)chromane-7-sulfonamide], the “Nav1.7 (LBA)” value amounted to 0.00609 µM. The same measure for `O=S(=O)(Nc1nccs1)c1ccc2c(c1)OCC[C@H]2N1CCCC[C@H]1c1ccccc1` (single isomer, unassigned) [Example 103]: 0.90 µM.

On to `O=S(=O)(Nc1ncns1)c1cc(F)c(CN2CC[C@H](OC(F)(F)F)C[C@@H]2c2ccccc2)cc1F` [Example 112, 2,5-Difluoro-4-(((2R,4S)-2-phenyl-4-(trifluoromethoxy)piperidin-1-yl)methyl)-N-(1,2,4-thiadiazol-5-yl)benzenesulfonamide], for which the “Nav1.7 (LBA)” value is 4.21 µM.

On to `O=S(=O)(Nc1ncns1)c1ccc(CN2CCCCC2c2ccccc2)c(Cl)c1` (stereo not drawn) [Example 63, 3-chloro-4-((2-phenylpiperidin-1-yl)methyl)-N-(1,2,4-thiadiazol-5-yl)benzenesulfonamide], for which the “Nav1.7 (LBA)” value turned out to be 0.609 µM. The same measure for `NC(=O)c1cccc([C@@H]2C[C@H](C(F)(F)F)CCN2[C@H]2CCOc3cc(S(=O)(=O)Nc4ncns4)ccc32)c1` [Example 205, 3-((2S,4R)-1-((S)-7-(N-(1,2,4-thiadiazol-5-yl)sulfamoyl)chroman-4-yl)-4-(trifluoromethyl)piperidin-2-yl)benzamide]: 0.000907 µM; for `O=S(=O)(Nc1cccc(F)n1)c1ccc(CN2CCCC[C@@H]2c2ccccc2)c(Cl)c1` [Example 74, (R)-3-chloro-N-(6-fluoropyridin-2-yl)-4-((2-phenylpiperidin-1-yl)methyl)-benzenesulfonamide]: 2.67 µM. Regarding `C[C@@H](c1ccc(S(=O)(=O)Nc2ncns2)cc1Cl)N1CCCC[C@@H]1c1ccccc1` (single isomer, unassigned) [Example 59], the “Nav1.7 (LBA)” value was found to be 5.04 µM.

Consider `CS(=O)(=O)[C@@H]1CCN([C@@H]2CCOc3cc(S(=O)(=O)Nc4ncns4)ccc32)[C@H](c2ccc(F)cc2)C1` [Example 162, (R)-4-((2S,4R)-2-(4-fluorophenyl)-4-(methylsulfonyl)piperidin-1-yl)-N-(1,2,4-thiadiazol-5-yl)chroman-7-sulfonamide], for which the “Nav1.7 (LBA)” value came to 3 µM.

In the case of `O=S(=O)(Nc1ncns1)c1ccc2c(c1)OCC[C@@H]2N1CCC(F)(F)C[C@H]1c1ccccc1` (single isomer, unassigned) [Example 140], the “Nav1.7 (LBA)” value stood at 0.0144 µM.

Regarding `CC(C)(C)OC(=O)N1CCN([C@@H]2CCOc3cc(S(=O)(=O)Nc4ncns4)ccc32)[C@H](c2ccc(F)cc2)C1` [Example 216, Tert-butyl (R)-4-((R)-7-(N-(1,2,4-thiadiazol-5-yl)sulfamoyl)chroman-4-yl)-3-(4-fluorophenyl)piperazine-1-carboxylate], the “Nav1.7 (LBA)” value worked out at 0.213 µM. As for `O=S(=O)(Nc1ncns1)c1ccc2c(c1)OCC[C@H]2N1CCC(F)(F)C[C@H]1c1ccc(F)cc1` (single isomer, unassigned) [Example 133], the “Nav1.7 (LBA)” value worked out at 0.0467 µM. Turning to `O=S(=O)(Nc1ncns1)c1ccc2c(c1)OCC[C@@H]2N1CCCC[C@H]1c1cccnc1` (single isomer, unassigned) [Example 121], the “Nav1.7 (LBA)” value was 0.0237 µM. The same measure for `O=S(=O)(Nc1ncns1)c1cc(F)c(CN2CCCC[C@H]2c2ccnnc2)cc1F` (single isomer, unassigned) [Example 11]: 1.26 µM; for `O=S(=O)(Nc1ncns1)c1ccc2c(c1)OCC[C@@H]2N1CC[C@H](CF)C[C@@H]1c1ccc(F)cc1` [Example 183, (S)-4-((2R,4S)-4-(fluoromethyl)-2-(4-fluorophenyl)piperidin-1-yl)-N-(1,2,4-thiadiazol-5-yl)chroman-7-sulfonamide]: 0.00652 µM; for `O=S(=O)(Nc1ncns1)c1ccc2c(c1)OCC[C@H]2N1CC[C@](O)(C(F)(F)F)C[C@@H]1c1ccc(F)cc1` [Example 170, (R)-4-((2R,4R)-2-(4-fluorophenyl)-4-hydroxy-4-(trifluoromethyl)piperidin-1-yl)-N-(1,2,4-thiadiazol-5-yl)chroman-7-sulfonamide]: 0.175 µM. The figure for `O=S(=O)(Nc1ncns1)c1ccc2c(c1)CCC[C@@H]2N1CCCC[C@@H]1c1ccccc1` (single isomer, unassigned) [Example 56] is 1.25 µM; for `O=S(=O)(Nc1ncns1)c1cc(F)c(CN2CCC(F)(F)C[C@@H]2c2ccccc2)cc1F` (single isomer, unassigned) [Example 33] it is 4.16 µM. The figure for `CS(=O)(=O)[C@H]1CCN([C@@H]2CCOc3cc(S(=O)(=O)Nc4ncns4)ccc32)[C@@H](c2ccc(F)cc2)C1` [Example 164, (R)-4-((2R,4S)-2-(4-fluorophenyl)-4-(methylsulfonyl)piperidin-1-yl)-N-(1,2,4-thiadiazol-5-yl)chroman-7-sulfonamide] is 0.208 µM; for `O=S(=O)(Nc1ncns1)c1cc2c(cc1F)[C@@H](N1CCCC[C@H]1c1ccccc1)CCO2` (single isomer, unassigned) [Example 84] it is 0.00991 µM; for `Cn1nccc1[C@H]1C[C@@H](C(F)(F)F)CCN1[C@@H]1CCOc2cc(S(=O)(=O)Nc3ncns3)ccc21` (single isomer, unassigned) [Example 126] it is 0.313 µM. On to `Cn1nccc1[C@H]1CCCCN1Cc1cc(F)c(S(=O)(=O)Nc2ncns2)cc1F` (single isomer, unassigned) [Example 14], for which the “Nav1.7 (LBA)” value turned out to be 0.22 µM. Consider `O=S(=O)(Nc1ncns1)c1cc(F)c(CN2CCCC[C@H]2c2cn[nH]c2)cc1F` (single isomer, unassigned) [Example 25], for which the “Nav1.7 (LBA)” value stood at 2.24 µM. The same measure for `O=S(=O)(Nc1ncns1)c1ccc2c(c1)C(F)(F)CC[C@H]2N1CCCC[C@H]1c1cccnc1` (single isomer, unassigned) [Example 228]: 0.504 µM; for `O=S(=O)(Nc1nccs1)c1cc2c(cc1F)[C@H](N1CC[C@@H](C(F)(F)F)C[C@H]1c1ccncc1)CCO2` [Example 195, (R)-6-fluoro-4-((2S,4R)-2-(pyridin-4-yl)-4-(trifluoromethyl)piperidin-1-yl)-N-(thiazol-2-yl)chroman-7-sulfonamide]: 0.0901 µM; for `O=S(=O)(Nc1ncns1)c1ccc2c(c1)CCC[C@@H]2N1CCCC[C@H]1c1ccccc1` (single isomer, unassigned) [Example 54]: 0.411 µM. As to `CS(=O)(=O)[C@H]1CCN([C@H]2CCOc3cc(S(=O)(=O)Nc4ncns4)ccc32)[C@@H](c2ccc(F)cc2)C1` [Example 163, (S)-4-((2R,4S)-2-(4-fluorophenyl)-4-(methylsulfonyl)piperidin-1-yl)-N-(1,2,4-thiadiazol-5-yl)chroman-7-sulfonamide], the “Nav1.7 (LBA)” value worked out at 0.0223 µM.
